In the assay the target is SMARCA2 (Homo sapiens, UniProt P51531). Briefly: MSD SMARCA2 degradation in NCI-H1299 cell line (24 h). The class given is cell-based. The following applies: for Dmax: NCI-H1299, NCI-H1299 cells; for DC50: NCI-H1299 cells, read-out: SMARCA2 MSD H1299 degradation 24 h: External Abs-DC50. Further details: HC: NCI-H1299 cells treated with DMSO; host or cells: NCI-H1299. The procedure, abridged: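 NCI-H1299 cells treated 24 h with a 3-fold, 9-point compound dilution series, then lysed in RIPA with protease inhibitor. SMARCA2 in lysate-coated MSD plates detected with rabbit anti-SMARCA2 (0.3 ug/ml) and SULFO-TAG secondary. Relative SMARCA2 level normalized between DMSO-treated H1299 cells and SMARCA2-negative A2780 cells; Dmax % binned A–D.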

The values that follow come from patent publication US12624044B2, “SMARCA degraders and uses thereof” (Kymera Therapeutics, Inc., priority 2019, dated 2026).

Some results are limits rather than exact numbers.

As a reminder, the Dmax is the largest share of the target that was removed. Low values mean shallow degradation, high ones deep degradation. The term DC50 denotes the concentration giving 50% degradation.

Chain of SMARCA2 (P51531 whole entry): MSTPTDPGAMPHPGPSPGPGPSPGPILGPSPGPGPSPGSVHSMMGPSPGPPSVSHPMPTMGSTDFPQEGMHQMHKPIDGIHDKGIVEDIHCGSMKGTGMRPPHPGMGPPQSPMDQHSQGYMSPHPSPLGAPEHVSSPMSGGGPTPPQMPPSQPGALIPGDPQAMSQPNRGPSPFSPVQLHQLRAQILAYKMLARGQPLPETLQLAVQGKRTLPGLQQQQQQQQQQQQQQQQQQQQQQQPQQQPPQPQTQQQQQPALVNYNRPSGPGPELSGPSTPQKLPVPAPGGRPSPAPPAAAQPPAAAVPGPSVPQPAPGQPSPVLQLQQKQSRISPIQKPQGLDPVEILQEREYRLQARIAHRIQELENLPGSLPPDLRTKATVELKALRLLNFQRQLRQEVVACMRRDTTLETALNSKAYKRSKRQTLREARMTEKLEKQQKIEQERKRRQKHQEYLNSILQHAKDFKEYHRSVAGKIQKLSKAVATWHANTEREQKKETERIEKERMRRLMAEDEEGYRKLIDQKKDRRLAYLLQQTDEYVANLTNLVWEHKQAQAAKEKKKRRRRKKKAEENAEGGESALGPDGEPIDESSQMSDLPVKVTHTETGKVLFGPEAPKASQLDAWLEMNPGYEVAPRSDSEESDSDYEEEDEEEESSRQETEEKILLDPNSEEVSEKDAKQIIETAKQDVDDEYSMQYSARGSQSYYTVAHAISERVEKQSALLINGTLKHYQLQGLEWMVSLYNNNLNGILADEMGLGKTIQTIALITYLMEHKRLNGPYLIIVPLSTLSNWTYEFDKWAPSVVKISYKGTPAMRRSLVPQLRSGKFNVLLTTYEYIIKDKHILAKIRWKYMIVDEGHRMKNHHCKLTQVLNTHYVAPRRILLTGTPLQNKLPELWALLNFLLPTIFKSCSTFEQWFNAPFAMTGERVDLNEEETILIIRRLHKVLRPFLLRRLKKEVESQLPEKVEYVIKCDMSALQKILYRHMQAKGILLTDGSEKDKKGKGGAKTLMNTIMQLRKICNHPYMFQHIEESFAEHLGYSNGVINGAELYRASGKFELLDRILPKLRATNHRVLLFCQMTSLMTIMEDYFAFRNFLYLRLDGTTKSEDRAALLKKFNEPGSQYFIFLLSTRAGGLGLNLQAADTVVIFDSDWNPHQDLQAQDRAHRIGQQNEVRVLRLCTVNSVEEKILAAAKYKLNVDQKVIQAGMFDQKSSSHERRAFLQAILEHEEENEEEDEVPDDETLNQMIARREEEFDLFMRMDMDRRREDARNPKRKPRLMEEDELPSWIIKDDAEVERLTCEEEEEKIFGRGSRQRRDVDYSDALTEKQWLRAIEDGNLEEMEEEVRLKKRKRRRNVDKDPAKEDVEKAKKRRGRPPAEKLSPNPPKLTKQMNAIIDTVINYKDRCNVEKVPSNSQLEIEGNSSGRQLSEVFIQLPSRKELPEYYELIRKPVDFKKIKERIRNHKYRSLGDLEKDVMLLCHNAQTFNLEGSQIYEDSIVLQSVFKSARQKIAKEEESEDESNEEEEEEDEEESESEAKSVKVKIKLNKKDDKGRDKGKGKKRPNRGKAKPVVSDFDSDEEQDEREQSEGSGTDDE

As for `Cn1c(=O)n(C2CCC(=O)NC2=O)c2ccc(CCCCN3CCN(Cc4ccc(-c5cc(-c6ccccc6O)nnc5N)cc4)CC3)cc21` (stereo not drawn) [I-154], the Dmax is less than 50% and the DC50 is more than 1 µM.

For the molecule `Cn1c(=O)n(C2CCC(=O)NC2=O)c2cccc(CCCOCCCCN3CCN(Cc4ccc(-c5cc(-c6ccccc6O)nnc5N)cc4)CC3)c21` (stereo not drawn) [I-155], the Dmax was in the range of 50 to 70% and the DC50 was in the range of 0.1 to 0.5 µM.

For the molecule `Cn1c(=O)n(C2CCC(=O)NC2=O)c2ccc(CN3CC(OCCCN4CCN(Cc5ccc(-c6cc(-c7ccccc7O)nnc6N)cc5)CC4)C3)cc21` (stereo not drawn) [I-156], the Dmax lay within 50 to 70% and the DC50 is more than 1 µM.

Take `Cn1c(=O)n(C2CCC(=O)NC2=O)c2ccc(CN3CC[C@@H](OCCCN4CCN(Cc5ccc(-c6cc(-c7ccccc7O)nnc6N)cc5)CC4)C3)cc21` (stereo partly drawn) [I-157]: the Dmax was 70 to 90% and the DC50 is 0.1 to 0.5 µM.

With `Cn1c(=O)n(C2CCC(=O)NC2=O)c2ccc(CN3CCC(OCCCN4CCN(Cc5ccc(-c6cc(-c7ccccc7O)nnc6N)cc5)CC4)CC3)cc21` (stereo not drawn) [I-158], the Dmax fell in the range of 70 to 90% and the DC50 lay within 0.1 to 0.5 µM.

For `CN(CCCc1ccc2c(c1)n(C)c(=O)n2C1CCC(=O)NC1=O)Cc1ccc(N2CCN(c3cc(-c4ccccc4O)nnc3N)CC2)cc1` (stereo not drawn) [I-159, 3-(5-(3-((4-(4-(3-amino-6-(2-hydroxyphenyl)pyridazin-4-yl)piperazin-1-yl)benzyl)(methyl)amino)propyl)-3-methyl-2-oxo-2,3-dihydro-1H-benzo[d]imidazol-1-yl)piperidine-2,6-dione], the Dmax was less than 50% and the DC50 is more than 1 µM.

For `CN1C(=O)CCC(n2c(=O)n(C)c3cc(CCCOCCCCN4CCN(Cc5ccc(-c6cc(-c7ccccc7O)nnc6N)cc5)CC4)ccc32)C1=O` (stereo not drawn) [I-160], the Dmax was less than 50% and the DC50 is more than 1 µM.

With `CN(CCCc1cnc(N2C3CCC2CN(c2cc(-c4ccccc4O)nnc2N)C3)nc1)CCCc1ccc2c(c1)n(C)c(=O)n2C1CCC(=O)NC1=O` (stereo not drawn) [I-161], the Dmax is more than 90% and the DC50 was less than 0.1 µM.

Take `Cn1c(=O)n(C2CCC(=O)NC2=O)c2ccc(CN3CCN(Cc4cnc(N5C6CCC5CN(c5cc(-c7ccccc7O)nnc5N)C6)nc4)CC3)cc21` (stereo not drawn) [I-163]: the Dmax is less than 50% and the 50% degradation concentration (DC50) was more than 1 µM.

For `CN(Cc1ccc2c(c1)n(C)c(=O)n2C1CCC(=O)NC1=O)C1CCN(Cc2cnc(N3C4CCC3CN(c3cc(-c5ccccc5O)nnc3N)C4)nc2)CC1` (stereo not drawn) [I-164, 3-(5-(((1-((2-(3-(3-amino-6-(2-hydroxyphenyl)pyridazin-4-yl)-3,8-diazabicyclo[3.2.1]octan-8-yl)pyrimidin-5-yl)methyl)piperidin-4-yl)(methyl)amino)methyl)-3-methyl-2-oxo-2,3-dihydro-1H-benzo[d]imidazol-1-yl)piperidine-2,6-dione hydrogen chloride], the Dmax is more than 90% and the DC50 was less than 0.1 µM.

`Cn1c(=O)n(C2CCC(=O)NC2=O)c2ccc(CCN3CCN(Cc4cnc(N5C6CCC5CN(c5cc(-c7ccccc7O)nnc5N)C6)nc4)CC3)cc21` (stereo not drawn) [I-165]: the Dmax was more than 90% and the DC50 was less than 0.1 µM.

`Cn1c(=O)n(C2CCC(=O)NC2=O)c2ccc(CN3CC4(CCN(Cc5cnc(N6C7CCC6CN(c6cc(-c8ccccc8O)nnc6N)C7)nc5)CC4)C3)cc21` (stereo not drawn) [I-166]: the Dmax was more than 90% and the DC50 is less than 0.1 µM.

Regarding `Cn1c(=O)n(C2CCC(=O)NC2=O)c2ccc(CCCN3CCC(c4cnc(N5C6CCC5CN(c5cc(-c7ccccc7O)nnc5N)C6)nc4)CC3)cc21` (stereo not drawn) [I-167, 3-[5-[3-[4-[2-[3-[3-amino-6-(2-hydroxyphenyl)pyridazin-4-yl]-3,8-diazabicyclo[3.2.1]octan-8-yl]pyrimidin-5-yl]-1-piperidyl]propyl]-3-methyl-2-oxo-benzimidazol-1-yl]piperidine-2,6-dione], the Dmax was more than 90% and the DC50 is less than 0.1 µM.

With `Cn1c(=O)n(C2CCC(=O)NC2=O)c2cccc(CN3CCCC(n4cc(-c5cc(-c6ccccc6O)nnc5N)cn4)C3)c21` (stereo not drawn) [I-168], the Dmax is 50 to 70% and the DC50 lay within 0.1 to 0.5 µM.

On to `Cn1c(=O)n(C2CCC(=O)NC2=O)c2cccc(CCCN3CCCC(n4cc(-c5cc(-c6ccccc6O)nnc5N)cn4)C3)c21` (stereo not drawn) [I-169, 3-(4-(3-(3-(4-(3-amino-6-(2-hydroxyphenyl)pyridazin-4-yl)-1H-pyrazol-1-yl)piperidin-1-yl)propyl)-3-methyl-2-oxo-2,3-dihydro-1H-benzo[d]imidazol-1-yl)piperidine-2,6-dione], for which the Dmax is more than 90% and the DC50 is less than 0.1 µM.

Turning to `Cn1c(=O)n(C2CCC(=O)NC2=O)c2cccc(CCCCCN3CCCC(n4cc(-c5cc(-c6ccccc6O)nnc5N)cn4)C3)c21` (stereo not drawn) [I-170], the Dmax was in the range of 70 to 90% and the DC50 is less than 0.1 µM.

Take `Cn1c(=O)n(C2CCC(=O)NC2=O)c2cccc(CCCCCCCN3CCCC(n4cc(-c5cc(-c6ccccc6O)nnc5N)cn4)C3)c21` (stereo not drawn) [I-171]: the Dmax lay in the range of 50 to 70% and the DC50 is more than 1 µM.

Consider `Cn1c(=O)n(C2CCC(=O)NC2=O)c2cccc(CN3CCC(n4cc(-c5cc(-c6ccccc6O)nnc5N)cn4)CC3)c21` (stereo not drawn) [I-173], for which the Dmax was less than 50% and the DC50 was more than 1 µM.

Consider `Cn1c(=O)n(C2CCC(=O)NC2=O)c2cccc(CCCN3CCC(n4cc(-c5cc(-c6ccccc6O)nnc5N)cn4)CC3)c21` (stereo not drawn) [I-174, 3-[4-[3-[4-[4-[3-amino-6-(2-hydroxyphenyl)pyridazin-4-yl]pyrazol-1-yl]-1-piperidyl]propyl]-3-methyl-2-oxo-benzimidazol-1-yl]piperidine-2,6-dione], for which the Dmax was more than 90% and the DC50 is less than 0.1 µM.

Turning to `Cn1c(=O)n(C2CCC(=O)NC2=O)c2cccc(CCCCCN3CCC(n4cc(-c5cc(-c6ccccc6O)nnc5N)cn4)CC3)c21` (stereo not drawn) [I-175], the Dmax is more than 90% and the DC50 was less than 0.1 µM.

In the case of `Cn1c(=O)n(C2CCC(=O)NC2=O)c2cccc(CCCCCCCN3CCC(n4cc(-c5cc(-c6ccccc6O)nnc5N)cn4)CC3)c21` (stereo not drawn) [I-176], the Dmax is 70 to 90% and the DC50 is less than 0.1 µM.

Turning to `Cn1c(=O)n(C2CCC(=O)NC2=O)c2ccc(CN3CCCC(n4cc(-c5cc(-c6ccccc6O)nnc5N)cn4)C3)cc21` (stereo not drawn) [I-177], the Dmax was in the range of 70 to 90% and the 50% degradation concentration (DC50) was less than 0.1 µM.

In the case of `Cn1c(=O)n(C2CCC(=O)NC2=O)c2ccc(CCCN3CCCC(n4cc(-c5cc(-c6ccccc6O)nnc5N)cn4)C3)cc21` (stereo not drawn) [I-178], the Dmax was in the range of 70 to 90% and the DC50 was less than 0.1 µM.

In the case of `Cn1c(=O)n(C2CCC(=O)NC2=O)c2ccc(CCCCCN3CCCC(n4cc(-c5cc(-c6ccccc6O)nnc5N)cn4)C3)cc21` (stereo not drawn) [I-179], the Dmax lay in the range of 50 to 70% and the half-maximal degradation concentration (DC50) was 0.1 to 0.5 µM.

For the molecule `Cn1c(=O)n(C2CCC(=O)NC2=O)c2ccc(CCCCCCCN3CCCC(n4cc(-c5cc(-c6ccccc6O)nnc5N)cn4)C3)cc21` (stereo not drawn) [I-180], the Dmax is less than 50% and the DC50 was more than 1 µM.

With `Cn1c(=O)n(C2CCC(=O)NC2=O)c2ccc(CN3CCC(n4cc(-c5cc(-c6ccccc6O)nnc5N)cn4)CC3)cc21` (stereo not drawn) [I-181], the Dmax is less than 50% and the DC50 is more than 1 µM.

With `Cn1c(=O)n(C2CCC(=O)NC2=O)c2ccc(CCCN3CCC(n4cc(-c5cc(-c6ccccc6O)nnc5N)cn4)CC3)cc21` (stereo not drawn) [I-182], the Dmax lay within 50 to 70% and the DC50 was 0.1 to 0.5 µM.
